What was measured:
C. violaceum ATCC 31532 [1] = assay: Violacein extraction assay (QS-mediated violacein production); format: cell-based; conditions: Chromobacterium violaceum, ATCC31532, read-out: Inhibition-% of violacein production
C. violaceum CV026 = assay: Violacein extraction assay (QS-mediated violacein production), mutant strain with exogenous autoinducer; format: cell-based, Chromobacterium violaceum; conditions: Chromobacterium violaceum, CV026, 24 h, read-out: Inhibition-% of violacein production
Procedure: (§1) The initial screening of compound library was conducted using two strains of C. violaceum as model bacterium, and two assays (violacein extraction and resazurin staining) in parallel as recently optimized in [26]. For the screening assays, overnight cultures of C. violaceum were diluted in LB broth supplemented with yeast extract (LBY) (0.1% w/v, Sigma Aldrich, St. Louis, MO, USA). Culture of C. violaceum CV026 was further supplemented with 0.5 µM N-(β-ketocaproyl)-L-Homoserine lactone (3-O-C6-(L)-HSL, Cayman chemicals, Ann Arbor, MI, USA) to induce the violacein production. Bacteria (10^6 CFU/mL) was exposed to compounds (400 µM) in a total volume of 200 µL in 96-microtiter well plates (Nunc, Roskilde, Denmark), and incubated at 27 °C, with shaking at 200 rpm for 24 h. DMSO was added in untreated control wells and bacteria-free wells with only LBY were included controls. Additionally, autoinducer-free wells containing only bacteria were included in C. violaceum CV026 plates. Plates were prepared in duplicates. Quercetin dihydrate (Carl Roth GmbH, Karlsruhe, Germany) at 400 µM was used as positive control in violacein extraction assay, and azithromycin (Cayman chemicals, Ann Arbor, MI, USA) at 10 µM in viability assay. Both control compounds were prepared in DMSO. DMSO concentration was 2.5% throughout the experiments.
(§2) After incubation period of 24 h, plates were centrifuged (Allegra™ X-12R Benchtop centrifuge, Beckman Coulter Inc., Fullerton, CA, USA) at 3000 rpm for 10 min to precipitate the violacein. Supernatants were discarded from the wells by pipetting, and pellets were re-suspended in 200 μL of 96% ethanol by scraping and mixing followed by centrifugation (3000 rpm, 10 min). Thereafter, 100 μL of supernatants were transferred to sterile 96-microtiter well plates, and violacein was quantified by reading the optical density at 595 nm using Varioskan Flash. Inhibition of violacein production was expressed as inhibition percentages of the untreated biofilms (Equation (1)):Inhibition-% = [(untreated control OD595 − sample OD595)/(untreated control OD595 − media control OD595)] × 100%(1) in which untreated control = C. violaceum + DMSO, media control = LBY, and sample = C. violaceum treated with a compound. Later on, violacein extraction assay was also utilized for the determination of half inhibitory concentrations of the compounds.

C. violaceum = tested on: C. violaceum; parameters: method as in PMID 27626397; conditions: cited from earlier work
cancer cell lines = tested on: cancer cell lines; parameters: method as in ref 56 = [56]; 56. National Center for Biotechnology Information PubChem BioAssay Database Available online: https://pubchem.ncbi.nlm.nih.gov/bioassay/924 (accessed on 28 March 2018); conditions: PubChem Bioassay database ref 56; cited from earlier work
[2] = tested on: Staphylococcus aureus biofilms; parameters: method as in PMID 24071942; conditions: cited from earlier work
C. violaceum ATCC 31532 [3] = assay: Violacein extraction assay (QS-mediated violacein production); format: cell-based, Chromobacterium violaceum; conditions: Chromobacterium violaceum, ATCC31532, 24 h, read-out: Inhibition-% of violacein production
Procedure: as §1, §2

## O=c1cc(-c2ccccc2)oc2cc(O)c(O)cc12 [Compound 916, 6,7-dihydroxy-2-phenylchromen-4-one]
C. violaceum ATCC 31532 [1]
  inhibition at 40 µM: 35.8 ± 1.1%
C. violaceum CV026
  inhibition at 400 µM: 95.7%
C. violaceum
  Anti-QS activity class in earlier screening: moderately active
Cancer cell lines
  Anti-cancer activity: inhibition of cancer cell lines
[2]
  Anti-biofilm activity against S. aureus: preventing biofilm formation and by eradicating pre-formed biofilms
C. violaceum ATCC 31532 [3]
  inhibition at 400 µM: 102%
